Source: article PMC5679651, “Complex antigen presentation pathway for an HLA-A*0201-restricted epitope from Chikungunya 6K protein” (PLoS Neglected Tropical Diseases, 2017)
Like-named read-outs stand apart in the source and are kept apart here. Square brackets hold non-standard residues; d marks the D form. Ends that are not written are not given here. Peptide text beside a SMILES is read from it. * marks the point of attachment. Sta = CC(C)C[C@H](N)[C@@H](O)CC(=O)O; Isovaleryl = CC(C)CC(=O)*

Key:
[1] = biological target: HLA-A*0201 (Homo sapiens, UniProt P04439, /I218V/L300P/L318F/N151K/N90K/P208A/P217A/Q86G/Q94H/R138H/R169H/T345S); assay: biochemical; format: binding; conditions: HLA-A*0201-transfected TAP-deficient RMA-S cells, peptide 2 h 26°C then 2 h 37°C, concentration range 0.001-100 μM, mAb PA2.1, flow cytometry, mean ± SD of four independent experiments, read-out: HLA-A*0201 Affinity values, EC50
[2] = tested on: CHIKV 6K51-59 epitope presentation by rVACV-CHIKV-infected HLA-A*0201+ DC; assay: cells; format: cell-based, HLA-A*0201-transgenic mice
[3] = tested on: VACV D12I251-259 epitope presentation by infected HLA-A*0201+ DC; format: cell-based, HLA-A*0201-transgenic mice; conditions: for percentage of inhibition of recognition by VACV D12I251-259-specific CD8+ T cells: SD
[4] = biological target: HLA-A*0201 (Homo sapiens, UniProt P04439, D140Y/D185E/D98H/E176V/E277Q/G131W/G231S/I119V/I121R/I166T/I218V/L300P/L318F/N151K/N90K/P208A/P217A/Q86G/Q94H/R138H/R169H/T345S); assay: biochemical; format: binding; conditions: HLA-A*0201-transfected TAP-deficient RMA-S cells; for binding to HLA-A*0201 (HLA-peptide surface complexes), in words: MHC-peptide complex stability assay
[5] = tested on: CHIKV 6K peptide-specific CD8+ T cell lines; format: cell-based, HLA-A*0201-transgenic mice; conditions: ICS
[6] = Mus musculus, T-cell, 5 h, read-out: percentage of inhibition of recognition by CHIKV 6K51-59-specific CD8+ T cells, SD

Row | Molecule | EC50 ([1]; SD) | effect on recognition by CHIKV 6K51-59-specific CD8+ T cell line, in words [2] | also measured
1 | CC(C)C[C@H](NC(=O)[C@H](CC(C)C)NC(=O)[C@H](CCCNC(=N)N)NC(=O)[C@H](CC(C)C)NC(=O)[C@H](CS)NC(=O)[C@H](CC(N)=O)NC(=O)[C@H](CS)NC(=O)[C@H](CC(C)C)NC(=O)[C@@H](N)C(C)C)C(=O)O [6K 31–39] (H-VLCNCLRLL-OH) | 5 ± 3 µM |  | 
2 | CC(C)C[C@H](NC(=O)[C@@H](NC(=O)[C@H](CCCCN)NC(=O)[C@H](CS)NC(=O)[C@H](CS)NC(=O)[C@H](CS)NC(=O)[C@@H]1CCCN1C(=O)[C@H](CC(C)C)NC(=O)[C@H](CC(C)C)NC(=O)[C@@H](N)CCCNC(=N)N)[C@@H](C)O)C(=O)O [6K 37–46] (H-RLLPCCCKTL-OH) | 8 ± 6 µM |  | 
3 | CC(C)C[C@H](NC(=O)[C@@H](O)[C@H](N)Cc1ccccc1)C(=O)O [BEST, Bestatin] |  | unaffected | 
4 | C[C@H]1CCC/C=C/[C@@H]2C[C@H](O)C[C@H]2[C@H](O)/C=C/C(=O)O1 [BFA, Brefeldin] |  | completely inhibited | effect on VACV D12I251-259 epitope presentation, in words [3]: complete inhibition
5 | CCN(CC)CCCC(C)Nc1ccnc2cc(Cl)ccc12 (stereo not drawn) [CQ, Chloroquine] |  |  | inhibition at 50 µM [2, 6]: 69 ± 19%
6 | CC(C)C[C@H](NC(=O)[C@H]1O[C@@H]1C(=O)O)C(=O)NCCCCN=C(N)N [E64] |  | None of these inhibitors affected | 
7 | O=C(O)CN(CCN(CC(=O)O)CC(=O)O)CC(=O)O [EDTA, Ethylenediaminetetraacetic acid] |  | unaffected | 
8 | CC(=O)N[C@@H](CSC(=O)[C@]1([C@@H](O)C(C)C)NC(=O)[C@H](C)[C@@H]1O)C(=O)O [LC, Lactacystin] |  |  | inhibition at 10 µM [2, 6]: 83 ± 3%; effect on VACV D12I251-259 epitope presentation, in words [3]: lesser effect
9 | CC(=O)N[C@@H](CC(C)C)C(=O)N[C@@H](CC(C)C)C(=O)N[C@H](C=O)CCCNC(=N)N [LEU, Leupeptin] |  | None of these inhibitors affected | 
10 | CC(C)C[C@H](N)CS [Leu-SH, Leucinthiol] |  |  | percentage of inhibition of recognition by CHIKV 6K51-59-specific CD8+ T cells ([2]; SD): 91 ± 13%; effect on VACV D12I251-259 epitope presentation, in words [3]: lesser effect
11 | CC(C)CC(=O)N[C@H](C(=O)N[C@H](C(=O)N[C@@H](CC(C)C)[C@@H](O)CC(=O)N[C@@H](C)C(=O)N[C@@H](CC(C)C)[C@@H](O)CC(=O)O)C(C)C)C(C)C [PEPST, Pepstatin] (Isovaleryl-VV[Sta]A[Sta]-OH) |  | None of these inhibitors affected | 
12 | c1cnc2c(c1)ccc1cccnc12 [PHE, 1–10 Phenanthroline] |  | None of these inhibitors affected | 
13 | O=S(=O)(F)Cc1ccccc1 [PMSF, Phenylmethane sulfonylfluoride] |  | None of these inhibitors affected | 
14 | COc1ccc(C[C@H](N)C(=O)N[C@H]2[C@@H](O)[C@H](n3cnc4c(N(C)C)ncnc43)O[C@@H]2CO)cc1 [PURO, Puromycin] |  |  | inhibition at 0.5 µg/mL [2, 6]: 47 ± 21%; percentage of inhibition of recognition by VACV D12I251-259-specific CD8+ T cells [3]: 4 ± 6%
15 | ALIPLAALI [6K 22–30] | 33 ± 28 µM |  | 
16 | ALIPLAALIV [6K 22–31] | 21 ± 20 µM |  | 
17 | ALIVLCNCL [6K 28–36] |  |  | binding to HLA-A*0201 (HLA-peptide surface complexes), in words [4]: not detected; HLA-A*0201 Affinity values, EC50 ([4]; peptide 2 h 26°C then 2 h 37°C, concentration range 0.001-100 μM, mAb PA2.1, flow cytometry, mean ± SD of four independent experiments): No binding
18 | Decanoyl-Arg-Val-Lys-Arg-chloromethylketone [dec-RVKR] |  |  | percentage of inhibition of recognition by CHIKV 6K51-59-specific CD8+ T cells ([2]; SD): 43 ± 20%; percentage of inhibition of recognition by VACV D12I251-259-specific CD8+ T cells [3]: 4 ± 6%
19 | ILDRIITNA [A10L 688-696] | 3 ± 3 µM |  | 
20 | QALIPLAAL [6K 21–29] |  |  | EC50 [1]: > 200 µM; binding to HLA-A*0201 (HLA-peptide surface complexes), in words [4]: residual; specific recognition of peptide-pulsed DC by CTL line, in words [5]: no specific recognition
21 | TLAFLAVMSV [6K 45–54] | 1 ± 0.5 µM |  | 
22 | VMSVGAHTV [6K 51–59] | 9 ± 1 µM |  | 
